In US12590086B2, “3-((1H-pyrazol-4-yl)methyl)-6′-(phenyl)-2H-(1,2′-bipyridin)-2-one derivatives and related compounds as GPR139 antagonists for use in a method of treatment of e.g. depression” (TAKEDA PHARMACEUTICAL COMPANY LIMITED, priority 2020, dated 2026):
Read-outs that look alike come from different tables or passages of the source.

Target: T1, human GPR139 (Homo sapiens, UniProt Q6DWJ6)
T1 construct: expressed in transfected cells; host or cells: CHO-TREx (Life Technologies) cells, expression induced with doxycycline
T1 sequence (Q6DWJ6 1-353): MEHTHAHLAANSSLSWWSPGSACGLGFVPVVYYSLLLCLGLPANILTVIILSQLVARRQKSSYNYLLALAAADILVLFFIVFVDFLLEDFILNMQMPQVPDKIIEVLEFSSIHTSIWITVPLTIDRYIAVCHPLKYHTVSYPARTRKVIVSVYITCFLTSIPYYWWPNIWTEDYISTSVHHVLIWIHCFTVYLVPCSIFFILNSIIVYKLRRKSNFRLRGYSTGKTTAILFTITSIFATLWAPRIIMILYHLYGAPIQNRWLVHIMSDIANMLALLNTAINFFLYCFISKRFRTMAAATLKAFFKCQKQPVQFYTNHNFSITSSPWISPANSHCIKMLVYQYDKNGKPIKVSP
Assay: Inhibition rate of the amount of IP1 in GPR139-expressed CHO cells (inverse agonist assay, IP-ONE HTRF)
Format: cell-based
Experimental: Measurement of the inhibition rate of the amount of IP1 in 30 µM of the compound of Reference Example 1 in GPR139-expressed CHO cells
Changes in the amount of IP1 in GPR139-expressed CHO cells were measured in order to evaluate the activity of the compound via GPR139. GPR139 is a Gq-coupled receptor which varies intracellular calcium (Liu C et al., Mol Pharmacol. 2015 November; 88(5):911-25), so the amount of IP1, which is a stable metabolite of the second messenger IP3, changes due to activity regulation of GPR139. GPR139 is considered to be […] when expressed recombinantly in mammal cells, so a compound having a GPR139 receptor inverse agonist action is expected to reduce the amount of IP1 production.
The measurement of IP1 was made using an IP-ONE HTFR assay kit (cis-bio) and CHO-TREx (Life Technologies) cells stably transfected with GPR139. The CHO-TREx cells expressed human GPR139 with a tetracycline-inducing element. The cells were cultured in a medium containing F12K and 10% tetracycline-free FBS, and the expression of human GPR139 was induced over the course of 17 hours under conditions of 37° C. and 5% CO2 in the presence of 2 μg/mL of doxycycline (Clontech, 631311) in the growth medium on the day before assay. On the day of the test, after the cells were washed with 10 mL of PBS, the cells were detached with TrypLE Express (Life Technologies) and centrifuged at 1,000 rpm to form pellets, and a cell suspension was then prepared using a stimulation buffer (cis-bio, included in the IP-ONE HTRF assay kit).
The compound was diluted with the stimulation buffer, and 4 μL was added to a 384-well white assay plate (Greiner). The cell suspension was added so that there were 2000 cells per well, and the assay plate was left to stand for 40 minutes at 37° C. Equal amounts of iP1-d2 and Ab-Crp solutions (both available from cis-bio, included in the IP-ONE HTRF assay kit) prepared with a lysis buffer (cis-bio, included in the IP-ONE HTRF assay kit) were mixed, and 4 μL was added to the assay plate and left to stand for one hour at room temperature. After the fluorescence strengths of two wavelengths were measured by the HTRF settings of Envision (PerkinElmer), the value of Ratio=((Signal 665 nm)/(Signal 615 nm))×10000 was calculated.
Measurement of the Inhibition Rate of the Amount of IP1 in GPR139-Expressed CHO Cells (Inverse Agonist Assay)
The activities of the compounds of Examples 20 to 33 were expressed as relative values in Table 2 by measuring the inhibition rate of the amount of IP1 with the same method as in Test Example 1 and defining the inhibition rate of the amount of IP1 of the compound of Reference Example 1 in Test Example 1 as 100%.

[1] = relative value, inhibition rate of Reference Example 1 in Test Example 1 defined as 100%, GPR139-expressed CHO cells, read-out: IP1 Inhibition Rate at 30 μM

Compound	inhibition at 30 µM [1] [%]	inhibition at 30 µM (30 μM compound, CHO-TREx cells expressing human GPR139, vehicle set to 0%, IP1 concentration 0 set to 100%, read-out: inhibition rate of the amount of IP1) [%]
CCn1cc(Cc2cccn(-c3cc(N4CCO[C@H](C)C4)cc(C4CC4)c3F)c2=O)cn1 [Example 20, 1-{3-cyclopropyl-2-fluoro-5-[(2R)-2-methylmorpholin-4-yl]phenyl}-3-[(1-ethyl-1H-pyrazol-4-yl)methyl]pyridin-2(1H)-one]	96	
CCn1cc(Cc2cccn(-c3cc(N4CCOC(C)(C)C4)cc(C4CC4)c3F)c2=O)cn1 [Example 21, 1-[3-cyclopropyl-5-(2,2-dimethylmorpholin-4-yl)-2-fluorophenyl]-3-[(1-ethyl-1H-pyrazol-4-yl)methyl]pyridin-2(1H)-one]	96	
CCn1cc(Cc2cccn(-c3cc(OC4CCOCC4)cc(C4CC4)c3F)c2=O)cn1 [Example 22, 1-{3-cyclopropyl-2-fluoro-5-[(oxan-4-yl)oxy]phenyl}-3-[(1-ethyl-1H-pyrazol-4-yl)methyl]pyridin-2(1H)-one]	98	
CCn1cc(Cc2cccn(-c3cc(OC4CCOCC4)cc(Br)c3F)c2=O)cn1 [Example 23, 1-{3-bromo-2-fluoro-5-[(oxan-4-yl)oxy]phenyl}-3-[(1-ethyl-1H-pyrazol-4-yl)methyl]pyridin-2(1H)-one]	100	
CCn1cc(Cc2cccn(-c3cc(N4CCO[C@H](C)C4)cc(OC(F)(F)F)c3F)c2=O)cn1 [Example 24, 3-[(1-ethyl-1H-pyrazol-4-yl)methyl]-1-{2-fluoro-5-[(2R)-2-methylmorpholin-4-yl]-3-(trifluoromethoxy)phenyl}pyridin-2(1H)-one]	98	
CC(C)n1cc(Cc2cccn(-c3cc(N4CCO[C@H](C)C4)cc(C4CC4)c3F)c2=O)cn1 [Example 25, 1-{3-cyclopropyl-2-fluoro-5-[(2R)-2-methylmorpholin-4-yl]phenyl}-3-{[1-(propan-2-yl)-1H-pyrazol-4-yl]methyl}pyridin-2(1H)-one]	95	
CCn1cc(Cc2c(F)ccn(-c3cc(N4CCO[C@H](C)C4)cc(C4CC4)c3F)c2=O)cn1 [Example 26, 1-{3-cyclopropyl-2-fluoro-5-[(2R)-2-methylmorpholin-4-yl]phenyl}-3-[(1-ethyl-1H-pyrazol-4-yl)methyl]-4-fluoropyridin-2(1H)-one]	97	
CCn1cc(Cc2cccn(-c3cc(N4CCO[C@H](C)C4)cc(C(C)C)c3F)c2=O)cn1 [Example 27, 3-[(1-ethyl-1H-pyrazol-4-yl)methyl]-1-{2-fluoro-5-[(2R)-2-methylmorpholin-4-yl]-3-(propan-2-yl)phenyl}pyridin-2(1H)-one]	96	
CCn1cc(Cc2cccn(-c3cc(N4CCO[C@H](C)C4)cc(CC(F)(F)F)c3F)c2=O)cn1 [Example 28, 3-[(1-ethyl-1H-pyrazol-4-yl)methyl]-1-{2-fluoro-5-[(2R)-2-methylmorpholin-4-yl]-3-(2,2,2-trifluoroethyl)phenyl}pyridin-2(1H)-one]	100	
CCn1cc(Cc2ccc(C)n(-c3cc(C4CC4)cc(N4CCO[C@H](C)C4)c3)c2=O)cn1 [Example 29, 1-{3-cyclopropyl-5-[(2R)-2-methylmorpholin-4-yl]phenyl}-3-[(1-ethyl-1H-pyrazol-4-yl)methyl]-6-methylpyridin-2(1H)-one]	102	
CCn1cc(Cc2cccn(-c3cc(N4CCC(F)(F)CC4)cc(C4CC4(F)F)c3F)c2=O)cn1 (stereo not drawn) [Example 30, 1-[3-(2,2-difluorocyclopropyl)-5-(4,4-difluoropiperidin-1-yl)-2-fluorophenyl]-3-[(1-ethyl-1H-pyrazol-4-yl)methyl]pyridin-2(1H)-one]	97	
CCn1cc(Cc2ccc(F)n(-c3cc(C4CC4)cc(N4CCO[C@H](C)C4)c3)c2=O)cn1 [Example 31, 1-{3-cyclopropyl-5-[(2R)-2-methylmorpholin-4-yl]phenyl}-3-[(1-ethyl-1H-pyrazol-4-yl)methyl]-6-fluoropyridin-2(1H)-one]	100	
CCn1cc(Cc2cc(C)cn(-c3cc(N4CCO[C@H](C)C4)cc(C4CC4)c3F)c2=O)cn1 [Example 32, 1-{3-cyclopropyl-2-fluoro-5-[(2R)-2-methylmorpholin-4-yl]phenyl}-3-[(1-ethyl-1H-pyrazol-4-yl)methyl]-5-methylpyridin-2(1H)-one]	99	
CCn1cc(Cc2c(C)ccn(-c3cc(N4CCO[C@H](C)C4)cc(C4CC4)c3F)c2=O)cn1 [Example 33, 1-{3-cyclopropyl-2-fluoro-5-[(2R)-2-methylmorpholin-4-yl]phenyl}-3-[(1-ethyl-1H-pyrazol-4-yl)methyl]-4-methylpyridin-2(1H)-one]	96	
CCn1cc(Cn2ccn(-c3cc(N4CCO[C@H](C)C4)cc(C(F)(F)F)c3F)c2=O)cn1 [Reference Example 1, 1-[(1-Ethyl-1H-pyrazole-4-yl)methyl]-3-{2-fluoro-5-[(2R)-2-methylmorpholine-4-yl]-3-(trifluoromethyl)phenyl}-1,3-dihydro-2H-imidazole-2-one, reference compound]		84
